The values that follow come from patent US20240368149A1, “ANALOGS OF XANOMELINE” (Terran Biosciences Inc., priority 2023, published 2024).

Data set [1] can be described thus: Rat PK: plasma prodrug concentration after intramuscular (IM) dosing of xanomeline prodrugs at 5 mg/kg (Example A-4). To be noted: male, Sprague-Dawley, IM 5 mg/kg of xanomeline, Mean. The format is in vivo, male Sprague-Dawley (SD) rats. As to the method: (§1) • Step 1: A stock solution of the compound(s) were prepared to 1 mg/ml in DMSO • Step 2: A 10,000 ng/mL matched matrix standard was prepared using the stock solution(s) • Step 3: Calibration standards in matched matrix were prepared between 10,000 ng/ml and 0.5 ng/mL using serial dilution • Step 4: QC samples were prepared in matched matrix at 4000, 800, 400, 40 and 10 ng/mL
(§2) • Step 1: Add 10 μL of the standards, QCs and samples to a 96-well plate (extraction plate) • Step 2: To each standard, QC and test sample, add 100 μL of ISZ • Step 3: Sonicate for 2 min then mix the plate for approximately 2 min at 1200 rpm on a plate shaker • Step 4: Centrifuge the plate at 3000 rpm for 5 min • Step 5: Add 50 μL 0.1% formic acid in UP H2O to wells of a new 96-well plate • Step 6: Transfer 50 μL extracted sample to relevant position in second 96-well plate • Step 7: Mix at 1200 rpm for 2 min • Step 8: Heat seal and analyse on the LC-MS/MS system • Instrument: Xevo TQ-D with CTC Autosampler
(§3) Samples were sent for method optimization and measurement of prodrug via unique calibration lines and following acceptance QC's. Dose formulation concentrations were also measured, and PK parameters were determined (Cmax (ng/mL), Tmax (hr), Cl (ml/min/kg), Vdss (L/kg), t½ (hr), AUC0-t (ng/mL*hr), AUC0-inf (ng/mL*hr), MRT (hr), Bioavailability (% F) where warranted) using WinNon Lin software. Data (including bioanalytical results and assay performance) were reported in a tabulated format and QC'd.
Formulation for IM administration: All compounds were formulated as solutions or fine suspensions in saline at 12.5 mg API/mL. This provided doses of 5 mg/kg (equivalent of xanomeline) when given to a 250 g rat in a 100 μL dosing volume.
The pharmacokinetic properties of the synthesized xanomeline prodrugs after intramuscular administration in a rat model were assessed. The concentration of prodrug was measured in each rat at various sampling timepoints after intramuscular administration of the synthesized xanomeline prodrugs to rats.
Dose formulations were made at equivalent concentrations of active compound (xanomeline) adjusted for molecular weight of the compounds. The synthesized xanomeline prodrugs were dosed at 5 mg/kg intramuscular (IM) nominal dose. Nominal doses were used in PK parameter determinations.

Data set [2] can be described thus: Rat PK: plasma prodrug concentration after intravenous (IV) dosing of xanomeline prodrugs at 1 mg/kg (Example A-6). The conditions noted are these: male, Sprague-Dawley, IV 1 mg/kg of xanomeline; for concentration at 0.5 h: 0.500 h; for concentration at 0.75 h: 0.750 h. The format is in vivo, male Sprague-Dawley (SD) rats. As to the method:
as §1, §2, §3
Compound was dissolved in DMSO:HPCD (20% w/v in water) [10:90] 0.5 mg API/mL to provide doses of 1 mg/kg when administered IV in a 2 mL/kg dosing volume.
The pharmacokinetic properties of the synthesized xanomeline prodrugs after intravenous administration in a rat model were assessed. The concentration of prodrug was measured in each rat at various sampling timepoints after intravenous administration of the synthesized xanomeline prodrugs to rats.
Dose formulations were made at equivalent concentrations of active compound (xanomeline) adjusted for molecular weight of the compounds. The synthesized xanomeline prodrugs were dosed at 1 mg/kg intravenous (IV) nominal dose. Nominal doses were used in PK parameter determinations.

The mark [3] stands for this setting: iv, 1 mg/kg, Mean, read-out: Prodrug Plasma Concentrations Following Intravenous Dosing.
Where [4] appears, read: iv, 1 mg/kg, individual animals, read-out: Prodrug Plasma Concentrations Following Intravenous Dosing.

Where two headings read alike, the source gives them in different places.

For `CCCCCCOc1nsnc1C1=CCC[N+](C)(C(CC)OC(=O)C(C)(C)C)C1` (stereo not drawn) [Compound 352], the Tmax (usually the time at which the peak concentration occurs) in data set [1] (analyte prodrug) turned out to be 30 min. The concentration at 2 h in data set [1] (intramuscular, 5 mg/kg, 2.00 h, read-out: Prodrug Plasma Concentrations Following Intramuscular Dosing) was 71.3 ng/mL. The concentration at 4 h in data set [1] (intramuscular, 5 mg/kg, 4.00 h, read-out: Prodrug Plasma Concentrations Following Intramuscular Dosing) was 33.4 ng/mL. For the same compound, the concentration at 8 h in data set [1] (intramuscular, 5 mg/kg, 8.00 h, read-out: Prodrug Plasma Concentrations Following Intramuscular Dosing) is 18.6 ng/mL. Besides, the Tmax in data set [2] (analyte prodrug, individual animals) came to 15 min. In addition, the concentration at 0.25 h in data set [2] (iv, 1 mg/kg, 0.250 h, Mean, read-out: Prodrug Plasma Concentrations Following Intravenous Dosing) is 33.2 ng/mL. Also, in data set [2] (setting [3]), the concentration at 0.5 h amounted to 12.9 ng/mL, the concentration at 0.75 h is 6.01 ng/mL and the concentration at 1 h was found to be 5.37 ng/mL. For the same compound, in data set [2] (setting [4]), the concentration at 0.5 h was found to be 10.3 ng/mL, the concentration at 0.75 h is 6.01 ng/mL and the concentration at 1 h is 5.58 ng/mL. The Cmax (commonly the maximum level reached in the sampled fluid or tissue) in data set [2] (iv, 1 mg/kg, analyte prodrug, Mean) came out at 33.2 ng/mL. Moreover, in data set [2] (iv, 1 mg/kg, analyte prodrug, Mean, read-out: Prodrug AUCINF_obs), the AUC(0-inf) was 44.4 ng·h/mL. The AUC(0-t) in data set [2] (iv, 1 mg/kg, analyte prodrug, Mean, read-out: Prodrug AUClast) is 42.4 ng·h/mL.
